These results are taken from patent publication US20250228832A1, “METHODS FOR TREATING DISORDERS AMELIORATED BY MUSCARINIC RECEPTOR ACTIVATION” (KARUNA THERAPEUTICS, INC., priority 2022, published 2025).

For this assay, the target named is T1, human M3 receptor (Homo sapiens, UniProt P20309).
T1 construct: expressed in transfected cells
Description: HTRF IP-One curve shift assay, M3. The class given is cell-based. The protocol:
HTRF IP-One assays were performed using frozen cell aliquots prepared from CHO-K1 cell lines stably expressing human M1, M3, or M5 receptors. Cells were frozen following typical cell freezing protocols. […] Dissociated cells were quenched in full media and collected by centrifugation at 290×g for 5 min. […] 1 mL aliquots of cells were dispensed into cryovial tubes and frozen in a controlled rate cryo-freezer container at −80° C. Cells were stored at −80° C. (or in liquid nitrogen if stored for at least six months) until the day of the assay.
On the day before the assay, frozen cells were rapidly thawed in a 37° C. water bath, brought up in 20 mL of full media, and collected via centrifugation at 290×g for 5 min. […] Next, […] of cells (10,000 cells/well) were dispensed into 384-well coming plates in triplicate. Cells were incubated overnight in a 37° C., 5% CO2 cell incubator.
Then, 2 μL of test compounds were added to the cells and incubated for 10 min at 37° C. in a 5% CO2 cell incubator. Next, 2 μL of diluted agonists serially diluted in assay buffer at 7× final assay concentration was added to assay plates. Finally, assay plates were incubated for two hours at 37° C. in a 5% CO2 cell incubator.
Six μL of IP-1 detection reagents (IP-One Gq HTRF kit, Cisbio Cat #62IPAPEJ) were dispensed to the cells. First, the plates were incubated for two hours at room temperature (IP-One detection reagents were made according to Cisbio protocol). Then, plates were read on an Envision plate reader following the Cisbio guidelines.
Raw data for all assays was transmitted directly from plate readers into the Beacon database for processing. All assay plates contained positive and negative control wells for data normalization and scaling. […] All control wells contained DMSO at a final assay concentration that matched the test compound wells.
Counts from the standard curve wells were used to generate a sigmoidal standard curve, which was used to transform the raw counts from each well on the plate (scaling control wells and compound wells) into a pmol/well IP1 value.
For orientation: TR-FRET usually uses a lanthanide donor and a delayed reading to cut background.

[1] abbreviates: Emraclidine concentration 41.2 nM, read-out: Emax.
The mark [2] stands for this setting: Emraclidine concentration 123 nM, read-out: Emax.
Setting [3] is: Emraclidine concentration 370 nM.
The mark [4] stands for this setting: Emraclidine concentration 1110 nM, read-out: Emax.
The mark [5] stands for this setting: Emraclidine concentration 3330 nM, read-out: Emax.
[6] abbreviates: MK-4710 concentration 41.2 nM, read-out: Emax.
Where [7] appears, read: MK-4710 concentration 123 nM, read-out: Emax.
The mark [8] stands for this setting: MK-4710 concentration 1110 nM, read-out: Emax.
Where [9] appears, read: MK-4710 concentration 3330 nM, read-out: Emax.

Where two headings read alike, the source gives them in different places.

T1 sequence (P20309 whole entry): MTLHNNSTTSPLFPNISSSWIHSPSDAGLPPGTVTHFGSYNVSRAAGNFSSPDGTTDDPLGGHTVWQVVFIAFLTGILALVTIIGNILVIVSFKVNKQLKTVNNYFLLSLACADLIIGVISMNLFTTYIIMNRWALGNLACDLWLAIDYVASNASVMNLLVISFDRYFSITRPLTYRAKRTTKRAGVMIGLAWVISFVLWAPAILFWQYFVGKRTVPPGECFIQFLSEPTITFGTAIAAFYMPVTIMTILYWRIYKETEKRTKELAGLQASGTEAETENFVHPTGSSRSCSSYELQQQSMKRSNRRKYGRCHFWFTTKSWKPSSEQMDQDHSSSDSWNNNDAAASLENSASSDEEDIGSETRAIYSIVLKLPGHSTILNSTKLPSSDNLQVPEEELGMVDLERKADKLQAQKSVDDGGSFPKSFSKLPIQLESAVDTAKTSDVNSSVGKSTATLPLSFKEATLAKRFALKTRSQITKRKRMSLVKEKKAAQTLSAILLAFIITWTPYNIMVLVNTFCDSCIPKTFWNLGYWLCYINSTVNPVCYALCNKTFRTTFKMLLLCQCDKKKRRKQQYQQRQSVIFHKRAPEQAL

On to `CCCCCCCOc1nsnc1C1=CCCCN1C` [KTX-593, 3-(heptyloxy)-4-(1-methyl-1,4,5,6-tetrahydropyridin-2-yl)-1,2,5-thiadiazole], for which the concentration for a half-maximal effect (EC50) (usually the concentration that produces a half-maximal response) turned out to be 0.224 µM (Emraclidine concentration 0 nM) and 0.045 µM (MK-4710 concentration 0 nM). Moreover, the Emax (in general, the greatest response seen or fitted, relative to the assay's reference) (Emraclidine concentration 0 nM) is given as 63.5%; the Emax under setting [1] amounted to 63.9%; the Emax under setting [2] stood at 68.2%; the maximal effect (Emax) under setting [4] is 64.6%; the Emax under setting [5] came out at 73%; the Emax (MK-4710 concentration 0 nM) was 80.8%. Moreover, the Emax turned out to be 75.4% under setting [6], 66.6% under setting [7], 74.3% under setting [8] and 86% under setting [9]. The Emax at […] under setting [3] is 73.4%, the Emax at […] (Emraclidine concentration […]) is 71.1%, the Emax at […] (MK-4710 concentration 370 nM) came out at 76.7% and the Emax at […] (MK-4710 concentration […]) turned out to be 72.7%. The “α (cooperativity, affinity shift)” value (M4 PAM Emraclidine) came out at 7.6 and the “α (cooperativity, affinity shift)” value (M4 PAM MK-4710) was 6.2. The “β (cooperativity, efficacy shift)” value by setting is: (M4 PAM Emraclidine) 1.1; (M4 PAM MK-4710) 1.6. The “τ (agonist pharmacology)” value reads like this: (M4 PAM Emraclidine) 0.0; (M4 PAM MK-4710) 0.0.

As for `CC1OC2(CS1)CN1CCC2CC1` (stereo not drawn) [cevimeline, Cevimeline, reference compound], the EC50 reads like this: (Emraclidine concentration 0 nM) 3.27 µM; (MK-4710 concentration 0 nM) 6.36 µM; (MK-4710 concentration 41.2 nM) 7.6 µM; (MK-4710 concentration 123 nM) 4.88 µM; (MK-4710 concentration 370 nM) 9.67 µM; (MK-4710 concentration 1110 nM) 11.2 µM. Also, the EC50 is, setting by setting: (MK-4710 concentration 3330 nM) 4.11 µM; (MK-4710 concentration […]) 11.5 µM. The Emax is 97.9% (Emraclidine concentration 0 nM); 96.7% under setting [1]; 83.8% under setting [2]; 125% under setting [4]; 83.9% under setting [5]; 118.7% (MK-4710 concentration 0 nM). The Emax runs as follows: under setting [6], 151%; under setting [7], 137%; under setting [8], 150%; under setting [9], 93.1%. Moreover, the maximum response (Emax) at […] was found to be 87.8% under setting [3], 77.3% (Emraclidine concentration […]), 163% (MK-4710 concentration 370 nM) and 159% (MK-4710 concentration […]). Further, the “α (cooperativity, affinity shift)” value (M4 PAM Emraclidine) is 1.0 and the “α (cooperativity, affinity shift)” value (M4 PAM MK-4710) stood at 2.1. Besides, the “β (cooperativity, efficacy shift)” value came out at 1.1 (M4 PAM Emraclidine) and 0.6 (M4 PAM MK-4710). The “τ (agonist pharmacology)” value by setting is: (M4 PAM Emraclidine) 0.1; (M4 PAM MK-4710) 0.0.

As for `CCCCCOc1nsnc1C1=CCCCN1C` [KTX-517, 3-(1-methyl-1,4,5,6-tetrahydropyridin-2-yl)-4-(pentyloxy)-1,2,5-thiadiazole], the EC50 (Emraclidine concentration 0 nM) came out at 0.0244 µM and the EC50 (MK-4710 concentration 0 nM) amounted to 0.0338 µM. The Emax amounted to 42.7% (Emraclidine concentration 0 nM); 45.3% under setting [1]; 50.2% under setting [2]; 54.8% under setting [4]; 59.6% under setting [5]; 46.7% (MK-4710 concentration 0 nM). The Emax was found to be 49.5% under setting [6], 48.3% under setting [7], 51.1% under setting [8] and 64.4% under setting [9]. In addition, the Emax at […] under setting [3] was 52.1%, the Emax at […] (Emraclidine concentration […]) was determined as 43%, the maximal response (Emax) at […] (MK-4710 concentration 370 nM) was determined as 53.4% and the Emax at […] (MK-4710 concentration […]) worked out at 45.6%. In addition, the “α (cooperativity, affinity shift)” value is, setting by setting: (M4 PAM Emraclidine) 1.0; (M4 PAM MK-4710) 7.7. Also, the “β (cooperativity, efficacy shift)” value runs as follows: (M4 PAM Emraclidine) 2.8; (M4 PAM MK-4710) 1.1. For the same compound, the “τ (agonist pharmacology)” value runs as follows: (M4 PAM Emraclidine) 0.0; (M4 PAM MK-4710) 0.0.

In the case of `CCCCCCOc1nsnc1C1=CCCN(C)C1` [xanomeline, reference compound], the EC50 (Emraclidine concentration 0 nM) worked out at 0.155 µM and the concentration giving a half-maximal response (EC50) (MK-4710 concentration 0 nM) worked out at 0.147 µM. The Emax (Emraclidine concentration 0 nM) came to 77.3%; the Emax under setting [1] was 81.9%; the Emax under setting [2] came out at 85.7%; the Emax under setting [4] worked out at 89.1%; the Emax under setting [5] was 80.3%; the Emax (MK-4710 concentration 0 nM) is reported as 84.2%. The Emax reads like this: under setting [6], 94.3%; under setting [7], 90.3%; under setting [8], 81%; under setting [9], 81.8%. Moreover, the Emax at […] under setting [3] came to 91.6%, the Emax at […] (Emraclidine concentration […]) worked out at 74.5%, the Emax at […] (MK-4710 concentration 370 nM) is 88.9% and the Emax at […] (MK-4710 concentration […]) is 81.5%. Moreover, the “τ (agonist pharmacology)” value was 0.1 (M4 PAM Emraclidine) and 0.1 (M4 PAM MK-4710).
